From article PMC12250302, “Synthesis, Antimicrobial Activities, and Model of Action of Novel Tetralone Derivatives Containing Aminoguanidinium Moiety” (International Journal of Molecular Sciences, 2025)
In brackets after ≈: the same amount, converted by molar mass.

How the values were obtained:
E. faecium ATCC 35667 = test: MIC and MBC testing, broth microdilution; assay type: cell-based, Enterococcus faecium; details: Enterococcus faecium, ATCC35667, E. faecium ATCC 35667; for MIC: 18 h, read-out: MIC; for MBC: read-out: MBC
Procedure, shortened: (§1)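 Log-phase cultures diluted in Mueller-Hinton broth to 1 × 10^6 CFU/mL were exposed to doubling dilutions of DMSO-dissolved compounds at 37 °C for 18 h, each concentration in triplicate. Lowest concentration lacking visible growth recorded as MIC; controls were levofloxacin and 0.1% DMSO.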

S. aureus ATCC 29213 = test: MIC and MBC testing, broth microdilution; assay type: cell-based, Staphylococcus aureus; details: Staphylococcus aureus, ATCC29213, S. aureus ATCC 29213; for MIC: 18 h, read-out: MIC; for MBC: read-out: MBC
Procedure, shortened: as §1

[1] = system: K. pneumoniae ATCC 700603; test: MIC and MBC testing, broth microdilution; assay type: cell-based, Klebsiella pneumoniae; details: Klebsiella pneumoniae; for MIC: ATCC700603, 18 h, read-out: MIC; for MBC: ATCC700603, read-out: MBC
Procedure, shortened: as §1

A. baumannii ATCC 19606 = test: MIC and MBC testing, broth microdilution; assay type: cell-based, Acinetobacter baumannii; details: Acinetobacter baumannii; for MIC: ATCC19606, 18 h, read-out: MIC; for MBC: ATCC19606, read-out: MBC
Procedure, shortened: as §1

P. aeruginosa ATCC 27853 = test: MIC and MBC testing, broth microdilution; assay type: cell-based, Pseudomonas aeruginosa; details: Pseudomonas aeruginosa; for MIC: ATCC27853, 18 h, read-out: MIC; for MBC: ATCC27853, read-out: MBC
Procedure, shortened: as §1

E. coli ATCC 25922 = test: MIC and MBC testing, broth microdilution; assay type: cell-based, Escherichia coli; details: Escherichia coli; for MIC: ATCC25922, 18 h, read-out: MIC; for MBC: ATCC25922, read-out: MBC
Procedure, shortened: as §1

MRSA-1 = test: MIC and MBC testing, broth microdilution; assay type: cell-based, Staphylococcus aureus; details: Staphylococcus aureus, MRSA-1; for MIC: 18 h, read-out: MIC; for MBC: read-out: MBC
Procedure, shortened: (§2)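 Broth microdilution in MH broth: 2-fold compound dilutions from DMSO stocks, log-phase clinical S. aureus isolates or MRSA-1 at 1 × 10^6 CFU/mL, 18 h at 37 °C, each concentration in triplicate. MIC recorded; MBC also determined.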

MRSA-2 = test: MIC and MBC testing, broth microdilution; assay type: cell-based, Staphylococcus aureus; details: Staphylococcus aureus, MRSA-2; for MIC: 18 h, read-out: MIC; for MBC: read-out: MBC
Procedure, shortened: (§3)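 Compounds in DMSO were serially two-fold diluted in MH broth and mixed with log-phase bacteria diluted to 1 × 10^6 CFU/mL in MH broth, then incubated 18 h at 37 °C. MBC values were also determined. Each concentration was tested in triplicate.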

[2] = system: clinical S. aureus isolate LMY45; test: MIC and MBC testing, broth microdilution; assay type: cell-based, Staphylococcus aureus; details: Staphylococcus aureus, LMY45; for MIC: 18 h, read-out: MIC; for MBC: read-out: MBC
Procedure, shortened: as §2

[3] = system: clinical S. aureus isolate LMY46; test: MIC and MBC testing, broth microdilution; assay type: cell-based, Staphylococcus aureus; details: Staphylococcus aureus, LMY46; for MIC: 18 h, read-out: MIC; for MBC: read-out: MBC
Procedure, shortened: as §2

[4] = system: clinical S. aureus isolate LMY47; test: MIC and MBC testing, broth microdilution; assay type: cell-based, Staphylococcus aureus; details: Staphylococcus aureus, LMY47; for MIC: 18 h, read-out: MIC; for MBC: read-out: MBC
Procedure, shortened: as §3

[5] = system: clinical S. aureus isolate LMY48; test: MIC and MBC testing, broth microdilution; assay type: cell-based, Staphylococcus aureus; details: Staphylococcus aureus, LMY48; for MIC: 18 h, read-out: MIC; for MBC: read-out: MBC
Procedure, shortened: as §2

MRSA = test: MIC testing, summary over MRSA strains; assay type: cell-based; details: Staphylococcus aureus; against MRSA
Description: (§4) The minimum inhibitory concentration (MIC) of all synthesized compounds was tested by the broth microdilution method. In brief, compounds dissolved in DMSO were diluted twice continuously in a 96-well plate with MH broth. The ESKAPE pathogens (E. coli ATCC 25922, S. aureus ATCC 29213, K. pneumoniae ATCC 700603, A. baumannii ATCC 19606, P. aeruginosa ATCC 27853, and E. faecium ATCC 35667), clinical S. aureus isolates (LMY45, LMY46, LMY47, and LMY48) and methicillin-resistant Staphylococcus aureus (MRSA-1 and MRSA-2) were cultured in MH broth to logarithmic growth phase and then diluted to 1 × 10^6 CFU/mL in MH broth. Subsequently, the diluted bacterial solution was mixed with the diluted compound solution in a 96-well plate and incubated at 37 °C for a duration of 18 h. The MIC of the compounds was recorded as the lowest concentration at which no visible growth was observed. […] Each concentration was replicated thrice.

[6] = system: S. aureus, including MRSA; test: MIC testing, summary over S. aureus strains; assay type: cell-based; details: Staphylococcus aureus
Description: as §4

MIC (E. faecium ATCC 35667) | MIC (S. aureus ATCC 29213) | MIC [1] | MIC (A. baumannii ATCC 19606) | MIC (P. aeruginosa ATCC 27853) | MIC (E. coli ATCC 25922) | MIC (MRSA-1) | MIC (MRSA-2) | MIC [2] | MIC [3] | MIC [4] | SMILES | MBC (E. faecium ATCC 35667) | MBC (S. aureus ATCC 29213) | MBC [1] | MBC (A. baumannii ATCC 19606) | MBC (E. coli ATCC 25922) | MBC (MRSA-1) | MBC (MRSA-2) | MBC [2] | MBC [3] | also measured
4 µg/mL (≈ 10.3 µM) | 2 µg/mL (≈ 5.16 µM) | 16 µg/mL (≈ 41.3 µM) | 8 µg/mL (≈ 20.7 µM) | > 32 µg/mL | 4 µg/mL (≈ 10.3 µM) | 1 µg/mL (≈ 2.58 µM) | 1 µg/mL (≈ 2.58 µM) | 2 µg/mL (≈ 5.16 µM) | 1 µg/mL (≈ 2.58 µM) | 2 µg/mL (≈ 5.16 µM) | [H]/N=C(\N)NN=C1CCCc2cc(OCc3ccc(Br)cc3)ccc21 [Compound 1S, (E)-2-(6-((4-bromobenzyl)oxy)-3,4-dihydronaphthalen-1(2H)-ylidene)hydrazine-1-carboximidamide] | 8 µg/mL (≈ 20.7 µM) | 8 µg/mL (≈ 20.7 µM) | 16 µg/mL (≈ 41.3 µM) | 16 µg/mL (≈ 41.3 µM) | 8 µg/mL (≈ 20.7 µM) | 4 µg/mL (≈ 10.3 µM) | 4 µg/mL (≈ 10.3 µM) | 4 µg/mL (≈ 10.3 µM) | 4 µg/mL (≈ 10.3 µM) | MBC [4]: 4 µg/mL (≈ 10.3 µM); MIC [5]: 4 µg/mL (≈ 10.3 µM); MBC [5]: 8 µg/mL (≈ 20.7 µM); MIC (MRSA): 1 to 2 µg/mL (≈ 2.58 to 5.16 µM); MIC [6]: 0.5 to 4 µg/mL (≈ 1.29 to 10.3 µM)
2 µg/mL (≈ 5.54 µM) | 2 µg/mL (≈ 5.54 µM) | 8 µg/mL (≈ 22.2 µM) | 4 µg/mL (≈ 11.1 µM) | 16 µg/mL (≈ 44.3 µM) | 4 µg/mL (≈ 11.1 µM) | 2 µg/mL (≈ 5.54 µM) | 1 µg/mL (≈ 2.77 µM) | 2 µg/mL (≈ 5.54 µM) | 1 µg/mL (≈ 2.77 µM) | 2 µg/mL (≈ 5.54 µM) | [H]/N=C(\N)NN=C1CCCc2cc(OCc3ccc(F)c(Cl)c3)ccc21 [Compound 1U, (E)-2-(6-((3-chloro-4-fluorobenzyl)oxy)-3,4-dihydronaphthalen-1(2H)-ylidene)hydrazine-1-carboximidamide] | 16 µg/mL (≈ 44.3 µM) | 4 µg/mL (≈ 11.1 µM) | 32 µg/mL (≈ 88.7 µM) | 16 µg/mL (≈ 44.3 µM) | 16 µg/mL (≈ 44.3 µM) | 32 µg/mL (≈ 88.7 µM) | 4 µg/mL (≈ 11.1 µM) | 2 µg/mL (≈ 5.54 µM) | 4 µg/mL (≈ 11.1 µM) | MBC (P. aeruginosa ATCC 27853): > 32 µg/mL; MBC [4]: 4 µg/mL (≈ 11.1 µM); MIC [5]: 4 µg/mL (≈ 11.1 µM); MBC [5]: 8 µg/mL (≈ 22.2 µM); MIC (MRSA): 1 to 2 µg/mL (≈ 2.77 to 5.54 µM); MIC [6]: 0.5 to 4 µg/mL (≈ 1.39 to 11.1 µM)
8 µg/mL (≈ 27.9 µM) | 4 µg/mL (≈ 14 µM) | 32 µg/mL (≈ 112 µM) | 16 µg/mL (≈ 55.9 µM) | 32 µg/mL (≈ 112 µM) | 16 µg/mL (≈ 55.9 µM) | 2 µg/mL (≈ 6.98 µM) | 1 µg/mL (≈ 3.49 µM) | 2 µg/mL (≈ 6.98 µM) | 2 µg/mL (≈ 6.98 µM) | 2 µg/mL (≈ 6.98 µM) | [H]/N=C(\N)NN=C1CCCc2cc(OCC=C(C)C)ccc21 [Compound 2I, (E)-2-(6-((3-methylbut-2-en-1-yl)oxy)-3,4-dihydronaphthalen-1(2H)-ylidene)hydrazine-1-carboximidamide] | 32 µg/mL (≈ 112 µM) | 32 µg/mL (≈ 112 µM) | > 32 µg/mL | 32 µg/mL (≈ 112 µM) | 32 µg/mL (≈ 112 µM) | 16 µg/mL (≈ 55.9 µM) | 2 µg/mL (≈ 6.98 µM) | 4 µg/mL (≈ 14 µM) | 2 µg/mL (≈ 6.98 µM) | MBC (P. aeruginosa ATCC 27853): 32 µg/mL (≈ 112 µM); MBC [4]: 8 µg/mL (≈ 27.9 µM); MIC [5]: 1 µg/mL (≈ 3.49 µM); MBC [5]: 2 µg/mL (≈ 6.98 µM); MIC (MRSA): 1 to 2 µg/mL (≈ 3.49 to 6.98 µM); MIC [6]: 0.5 to 4 µg/mL (≈ 1.75 to 14 µM)

SMILES | MIC (E. faecium ATCC 35667) | MIC (S. aureus ATCC 29213) | MIC [1] | MIC (A. baumannii ATCC 19606) | MIC (P. aeruginosa ATCC 27853) | MIC (E. coli ATCC 25922) | MIC (MRSA-1) | MIC (MRSA-2) | MIC [2] | MIC [3] | MIC [4] | MBC (E. faecium ATCC 35667) | MBC (S. aureus ATCC 29213) | MBC [1] | MBC (A. baumannii ATCC 19606) | MBC (E. coli ATCC 25922) | MBC (MRSA-1) | MBC (MRSA-2) | MBC [2] | MBC [3] | also measured
[H]/N=C(\N)NN=C1CCCc2cc(OCCCC)ccc21 [Compound 2A, (E)-2-(6-butoxy-3,4-dihydronaphthalen-1(2H)-ylidene)hydrazine-1-carboximidamide] | 8 µg/mL (≈ 29.2 µM) | 4 µg/mL (≈ 14.6 µM) | 16 µg/mL (≈ 58.3 µM) | 8 µg/mL (≈ 29.2 µM) | 32 µg/mL (≈ 117 µM) | 16 µg/mL (≈ 58.3 µM) | 2 µg/mL (≈ 7.29 µM) | 1 µg/mL (≈ 3.64 µM) | 2 µg/mL (≈ 7.29 µM) | 2 µg/mL (≈ 7.29 µM) | 2 µg/mL (≈ 7.29 µM) | 32 µg/mL (≈ 117 µM) | > 32 µg/mL | > 32 µg/mL | 16 µg/mL (≈ 58.3 µM) | > 32 µg/mL | 2 µg/mL (≈ 7.29 µM) | 2 µg/mL (≈ 7.29 µM) | 4 µg/mL (≈ 14.6 µM) | 4 µg/mL (≈ 14.6 µM) | MBC (P. aeruginosa ATCC 27853): 32 µg/mL (≈ 117 µM); MBC [4]: 2 µg/mL (≈ 7.29 µM); MIC [5]: 1 µg/mL (≈ 3.64 µM); MBC [5]: 2 µg/mL (≈ 7.29 µM); MIC (MRSA): 1 to 2 µg/mL (≈ 3.64 to 7.29 µM); MIC [6]: 0.5 to 4 µg/mL (≈ 1.82 to 14.6 µM)
